# Measured values published in patent publication US10966430B2, “Natural fungicide composition” (GRIFFITH FOODS INTERNATIONAL INC., priority 2013, dated 2021).
# Test system: Mycosphaerella fijiensis
# Assay: Second field trials: in vitro fungicidal activity, length of germinated ascospores on water-agar
# Type: cell-based
# Settings: for % Inhibition: ascospores incubated 48 hours at 26° C. in darkness
# Experimental: Additional field trials were conducted to evaluate the in vitro fungicidal activity of 14 composition embodiments in the treatment of Mycosphaerella fijiensis.
# Culture media comprising 2% water-agar (Difco® Bacto® Agar) and 0.001, 0.01, 0.1, 1, 10, 100, and 1,000 mg/L of the active substance were each prepared in a petri dish for each composition. A separate culture media without any active substance was used as a control. For comparative fungicides F-11-01 to F-11-12 listed in Table 1 below, the active substance was the same as the composition as a whole.
# Ascospores of Mycosphaerella fijiensis obtained from a banana plantation that had not been treated with any fungicides were discharged into each petri dish. After discharging the ascospores of Mycosphaerella fijiensis, each sample was incubated for 48 hours at 26° C. in complete darkness. After 48 hours of incubation, the length of 100 germinated ascospores at each concentration was measured.
# After collecting the data, the average length of the germinated ascospores was calculated for each concentration. The average inhibition percentage was calculated for each sample fungicide at each concentration using the following formula:
# where: • Lcontrol=average length of germinated ascospores of control sample • Lsample=average length of germinated ascospores of sample fungicide.
# The average inhibition percentage was used to calculate EC50 for each sample fungicide. EC50 is the half maximal effective concentration, which refers to the concentration of sample fungicide that induces a response halfway between the baseline and maximum after a specified exposure time.
substance,measurement,setting,value
Polysorbate 80 [Fungicide F-11-09],% Inhibition,0.001 mg/L,37.98%
same,% Inhibition,0.01 mg/L,42.6%
same,% Inhibition,0.1 mg/L,11.91%
same,% Inhibition,1 mg/L,31.87%
same,% Inhibition,10 mg/L,52.04%
same,% Inhibition,100 mg/L,46.24%
same,Natural Log,natural log belonging to the EC50 column,10.45
